{"source": "ChEMBL document CHEMBL1128481", "about": "“Synthesis, structure elucidation, and biochemical evaluation of 7 alpha- and 7 beta-arylaliphatic-substituted androst-4-ene-3,17-diones as inhibitors of aromatase” (J Med Chem, 1995)", "key": {"[1]": {"target": "T1, Aromatase (Homo sapiens, UniProt P11511)", "T1 sequence (P11511 whole entry)": "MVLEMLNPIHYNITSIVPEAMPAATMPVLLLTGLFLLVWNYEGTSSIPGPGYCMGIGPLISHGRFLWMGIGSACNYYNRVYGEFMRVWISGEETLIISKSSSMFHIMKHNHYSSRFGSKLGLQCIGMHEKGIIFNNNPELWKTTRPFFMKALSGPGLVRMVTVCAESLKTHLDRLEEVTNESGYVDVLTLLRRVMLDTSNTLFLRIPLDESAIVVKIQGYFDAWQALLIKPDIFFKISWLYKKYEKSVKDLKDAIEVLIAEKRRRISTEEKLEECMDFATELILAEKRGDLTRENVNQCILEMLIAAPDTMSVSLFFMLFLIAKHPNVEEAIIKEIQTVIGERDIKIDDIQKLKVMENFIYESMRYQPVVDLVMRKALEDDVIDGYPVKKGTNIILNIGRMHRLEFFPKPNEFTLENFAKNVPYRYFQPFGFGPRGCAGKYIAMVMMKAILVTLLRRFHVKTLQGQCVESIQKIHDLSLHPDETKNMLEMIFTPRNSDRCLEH", "assay": "Inhibition of human placental Cytochrome P450 19A1 at 100 nM"}, "[2]": {"target": "T1, Aromatase", "description": "Inhibition of human placental Cytochrome P450 19A1 at 250 nM"}, "[3]": {"target": "T1, Aromatase", "remark": "listed apart in the source"}, "[4]": {"target": "T1, Aromatase", "remark": "listed apart in the source", "description": "Apparent binding affinity for human placental Cytochrome P450 19A1"}}, "data": [{"smiles": "C[C@]12CCC(=O)C=C1C[C@@H](Sc1ccc(N)cc1)[C@@H]1[C@@H]2CC[C@]2(C)C(=O)CC[C@@H]12", "values": [{"measurement": "inhibition at 0.1 µM", "setting": "[1]", "value": 70.6, "unit": "%"}, {"measurement": "inhibition at 0.25 µM", "setting": "[2]", "value": 83.9, "unit": "%"}]}, {"smiles": "C[C@]12CCC(=O)C=C1C[C@H](CCc1ccccc1)[C@@H]1[C@@H]2CC[C@]2(C)C(=O)CC[C@@H]12", "values": [{"measurement": "inhibition at 0.1 µM", "setting": "[3]", "value": 55.7, "unit": "%"}, {"measurement": "inhibition at 0.25 µM", "setting": "[2]", "value": 67.8, "unit": "%"}, {"measurement": "Ki", "setting": "[4]", "value": 40.2, "unit": "nM"}]}, {"smiles": "C[C@]12CCC(=O)C=C1C[C@H](Cc1ccccc1)[C@@H]1[C@@H]2CC[C@]2(C)C(=O)CC[C@@H]12", "values": [{"measurement": "inhibition at 0.1 µM", "setting": "[3]", "value": 46.7, "unit": "%"}, {"measurement": "inhibition at 0.25 µM", "setting": "[2]", "value": 68.9, "unit": "%"}, {"measurement": "Ki", "setting": "[4]", "value": 44.5, "unit": "nM"}]}, {"smiles": "C[C@]12CC[C@H]3[C@@H]([C@H](Cc4ccccc4)CC4=CC(=O)CC[C@@]43C)[C@@H]1CC[C@@H]2O", "values": [{"measurement": "inhibition at 0.1 µM", "setting": "[3]", "value": 59.4, "unit": "%"}, {"measurement": "inhibition at 0.25 µM", "setting": "[2]", "value": 72.5, "unit": "%"}, {"measurement": "Ki", "setting": "[4]", "value": 39.5, "unit": "nM"}]}, {"smiles": "C[C@]12CC[C@H]3[C@@H]([C@H](CCc4ccccc4)CC4=CC(=O)CC[C@@]43C)[C@@H]1CC[C@@H]2O", "values": [{"measurement": "inhibition at 0.1 µM", "setting": "[3]", "value": 45.8, "unit": "%"}, {"measurement": "inhibition at 0.25 µM", "setting": "[2]", "value": 56.7, "unit": "%"}, {"measurement": "Ki", "setting": "[4]", "value": 36, "unit": "nM"}]}, {"smiles": "CC12CCC3C(C1CCC2=O)[C@H](Cc1ccccc1)CC1=CC(=O)CCC13C", "note": "(stereo not given in full)", "values": [{"measurement": "inhibition at 0.1 µM", "setting": "[3]", "value": 64.3, "unit": "%"}, {"measurement": "inhibition at 0.25 µM", "setting": "[2]", "value": 81.5, "unit": "%"}, {"measurement": "Ki", "setting": "[4]", "value": 18.9, "unit": "nM"}]}, {"smiles": "CC12CCC3C(C1CCC2=O)[C@H](CCc1ccccc1)CC1=CC(=O)CCC13C", "note": "(stereo not given in full)", "values": [{"measurement": "inhibition at 0.1 µM", "setting": "[3]", "value": 66.1, "unit": "%"}, {"measurement": "inhibition at 0.25 µM", "setting": "[2]", "value": 81.6, "unit": "%"}, {"measurement": "Ki", "setting": "[4]", "value": 13.1, "unit": "nM"}]}]}
